Measurements taken from PubChem BioAssay (NCI).
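Cells were grown in 96-well plates and exposed to each compound for 48 hours at five concentrations; endpoints were interpolated linearly between bracketing concentrations, or set to the highest concentration if not reached. The concentration for 50% growth inhibition is given as GI50. The concentration for full growth arrest is given as TGI.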

How the values were obtained:
Assay in all cases: NCI anticancer screen, dose series, 48 h
CAKI-1 renal = test system: CAKI-1 renal
SN12C renal = test system: SN12C renal
MDA-MB-435 = test system: MDA-MB-435
SK-MEL-28 melanoma = test system: SK-MEL-28 melanoma
U251 CNS = test system: U251 CNS
PC-3 prostate = test system: PC-3 prostate
EKVX NSCLC = test system: EKVX NSCLC
COLO 205 colon = test system: COLO 205 colon
SW-620 colon = test system: SW-620 colon
RXF 393 renal = test system: RXF 393 renal
OVCAR-4 ovarian = test system: OVCAR-4 ovarian
OVCAR-3 ovarian = test system: OVCAR-3 ovarian
HT29 colon = test system: HT29 colon
SK-MEL-2 melanoma = test system: SK-MEL-2 melanoma
UO-31 renal = test system: UO-31 renal
HCC-2998 colon = test system: HCC-2998 colon
NCI-H23 lung = test system: NCI-H23 lung
KM12 colon = test system: KM12 colon
SK-OV-3 ovarian = test system: SK-OV-3 ovarian
MALME-3M melanoma = test system: MALME-3M melanoma
SNB-75 CNS = test system: SNB-75 CNS
OVCAR-8 ovarian = test system: OVCAR-8 ovarian
LOX IMVI melanoma = test system: LOX IMVI melanoma
NCI/ADR-RES ovarian = test system: NCI/ADR-RES ovarian
BT-549 breast = test system: BT-549 breast
SF-295 CNS = test system: SF-295 CNS
HL-60(TB) leukemia = test system: HL-60(TB) leukemia

**Q.** For Nc1c(C(=O)N/N=C/c2ccco2)cnn1-c1ccnc2c(C(F)(F)F)cccc12, which GI50 (CAKI-1 renal) is on record?
**A.** 37.5 µM

**Q.** And the TGI (CAKI-1 renal)?
**A.** > 100 µM

**Q.** What about the GI50 (SN12C renal) of the same compound?
**A.** 20.2 µM

**Q.** What about the TGI (SN12C renal) of the same compound?
**A.** 55 µM

**Q.** What about the GI50 (MDA-MB-435) of the same compound?
**A.** 26.2 µM

**Q.** What about the TGI (MDA-MB-435) of the same compound?
**A.** 75.3 µM

**Q.** What about the GI50 (SK-MEL-28 melanoma) of the same compound?
**A.** 19.1 µM

**Q.** What about the TGI (SK-MEL-28 melanoma) of the same compound?
**A.** 36.8 µM

**Q.** What about the GI50 (U251 CNS) of the same compound?
**A.** 20.5 µM

**Q.** What about the TGI (U251 CNS) of the same compound?
**A.** 40.5 µM

**Q.** What about the GI50 (PC-3 prostate) of the same compound?
**A.** 19.3 µM

**Q.** And the TGI (PC-3 prostate)?
**A.** 49.1 µM

**Q.** And the GI50 (EKVX NSCLC)?
**A.** 82.2 µM

**Q.** What about the TGI (EKVX NSCLC) of the same compound?
**A.** > 100 µM

**Q.** And the GI50 (COLO 205 colon)?
**A.** 24.9 µM

**Q.** What about the TGI (COLO 205 colon) of the same compound?
**A.** 53.8 µM

**Q.** And the GI50 (SW-620 colon)?
**A.** 19.9 µM

**Q.** And the TGI (SW-620 colon)?
**A.** 37.3 µM

**Q.** What about the GI50 (RXF 393 renal) of the same compound?
**A.** 22.7 µM

**Q.** What about the TGI (RXF 393 renal) of the same compound?
**A.** 43.7 µM

**Q.** And the GI50 (OVCAR-4 ovarian)?
**A.** 33.5 µM

**Q.** And the TGI (OVCAR-4 ovarian)?
**A.** > 100 µM

**Q.** What about the GI50 (OVCAR-3 ovarian) of the same compound?
**A.** 17.8 µM

**Q.** And the TGI (OVCAR-3 ovarian)?
**A.** 39 µM

**Q.** And the GI50 (HT29 colon)?
**A.** 19.8 µM

**Q.** What about the TGI (HT29 colon) of the same compound?
**A.** 38.8 µM

**Q.** What about the GI50 (SK-MEL-2 melanoma) of the same compound?
**A.** 57.4 µM

**Q.** What about the TGI (SK-MEL-2 melanoma) of the same compound?
**A.** > 100 µM

**Q.** What about the GI50 (UO-31 renal) of the same compound?
**A.** 16.9 µM

**Q.** What about the TGI (UO-31 renal) of the same compound?
**A.** 33.7 µM

**Q.** And the GI50 (HCC-2998 colon)?
**A.** 22.8 µM

**Q.** And the TGI (HCC-2998 colon)?
**A.** 48.5 µM

**Q.** What about the GI50 (NCI-H23 lung) of the same compound?
**A.** 35 µM

**Q.** And the TGI (NCI-H23 lung)?
**A.** > 100 µM

**Q.** And the GI50 (KM12 colon)?
**A.** 31.9 µM

**Q.** What about the TGI (KM12 colon) of the same compound?
**A.** 75 µM

**Q.** And the GI50 (SK-OV-3 ovarian)?
**A.** 86.4 µM

**Q.** And the TGI (SK-OV-3 ovarian)?
**A.** > 100 µM

**Q.** And the GI50 (MALME-3M melanoma)?
**A.** 73.3 µM

**Q.** And the TGI (MALME-3M melanoma)?
**A.** > 100 µM

**Q.** And the GI50 (SNB-75 CNS)?
**A.** 28.1 µM

**Q.** What about the TGI (SNB-75 CNS) of the same compound?
**A.** 97.7 µM

**Q.** What about the GI50 (OVCAR-8 ovarian) of the same compound?
**A.** 24.2 µM

**Q.** And the TGI (OVCAR-8 ovarian)?
**A.** 57.1 µM

**Q.** And the GI50 (LOX IMVI melanoma)?
**A.** 17.4 µM

**Q.** And the TGI (LOX IMVI melanoma)?
**A.** 31.2 µM

**Q.** And the GI50 (NCI/ADR-RES ovarian)?
**A.** 20.6 µM

**Q.** What about the TGI (NCI/ADR-RES ovarian) of the same compound?
**A.** 41.5 µM

**Q.** What about the GI50 (BT-549 breast) of the same compound?
**A.** 18.2 µM

**Q.** What about the TGI (BT-549 breast) of the same compound?
**A.** 40.7 µM

**Q.** What about the GI50 (SF-295 CNS) of the same compound?
**A.** 38.7 µM

**Q.** And the TGI (SF-295 CNS)?
**A.** > 100 µM

**Q.** And the GI50 (HL-60(TB) leukemia)?
**A.** 25.8 µM

**Q.** What about the TGI (HL-60(TB) leukemia) of the same compound?
**A.** 49.5 µM
